“Also recorded” adds a separate entry of the source.
Experiments:
carbonic anhydrase [1] = biological target: T1, carbonic anhydrase (Bos taurus, UniProt P00921); test: Carbonic anhydrase (CA) assay; type: biochemical; conditions: bovine enzyme, p-nitrophenyl acetate substrate, pH 7.6, 25°C; for IC50: read-out: Carbonic anhydrase IC50 ± SEM
T1 construct: purchased Sigma-Aldrich

carbonic anhydrase [2] = biological target: T1, carbonic anhydrase; test: Kinetic analysis (Lineweaver-Burk) of carbonic anhydrase inhibition; type: biochemical, bovine
Procedure: CA inhibition has been determined using some reported methods with a few modifications. […] In brief, 120 microliters of 50 mM Tris-Sulfate buffer (with a pH 7.6 comprising 0.1 mM ZnCl2), twenty μL of (50 U) bovine enzyme, and 20 μL of inhibitor per well makes the reaction mixture. Mixture contents were mixed well before preincubation for ten minutes at 25°C. Para-nitrophenyl acetate substrate (6 mM stock solution by using <5% acetonitrile present in buffer and has been used fresh each time) and forty microliters were taken I each well to reach 0.6 mM concentration per well. The volume of the reaction mixture was diluted to 200 μL. Contents were well mixed after thirty-minute incubation at 25°C, and absorbance results were determined at 348 nm with a microplate reader (SpectraMax ABS, USA). Standard used was acetazolamide. Experiments were performed in triplicate with each concentration. GraphPad Prism 5.0 (GraphPad, San Diego, CA, USA) has been used to calculate IC50 by nonlinear regression. Inhibition (%) = [(B − S)/B] × 100, where S and B are the absorbances of the samples and blank.
To determine the kinetic parameters of compound 3c, a sequence of experiments have been done. Compound 3c was selected on the basis of IC50 value which was used at different concentrations (0.0, 7.1, 14.2, and 28.4 μM, respectively); the substrate (p-nitrophenyl acetate) concentrations were varied (2, 1, 0.5, 0.25, 0.125, and 0.0625 mM). Other all experimental conditions were just similar as described in the carbonic anhydrase assay segment. The maximum initial velocity has been measured using the starting linear part of absorbance values up to ten minutes at a 1-minute interval. Plots of Lineweaver–Burk on graph between inverse of velocities (1/V) and inverse of concentration of substrate 1/[S] mM^−1 were used in order to find enzyme inhibition type. EI dissociation constant Ki was found by the secondary plot of concentrations of inhibitors versus 1/V.

MCF-7 cells = test: Cell viability assay (MTT) using MCF-7; type: cell-based, human; conditions: MCF-7, 24 h, 0, 125 and 250 μM
Procedure: (§1) The experiment for cell viability studies using MTT (3-(4,5-dimethylthiazol-2yl)-2,5-diphenyltetrazolium bromide) setup has been done to find cytotoxic effects of target compounds. The human keratinocyte (HaCaT) and MCF-7 were cultivated separately in 96-well plates (CGP, gamma sterilized, SPL Korea) with use of complete DMEM consisting of ten percent fetal bovine serum and one percent antibiotics. 5∗10^4 cells per well were incubated for 24 hours before their exposure to a series of dilutions of target derivatives. The analogue 3c was solubilized in DMSO, and DMEM was used for dilution to achieve final concentrations 0, 125, and 250 μM. Then, in the presence of test compounds, cells were incubated again for twenty-four hours at 37 C with 5% carbon dioxide. Now, through the MTT setup, absorbance values at 570 nm were determined by ELISA reader and each experiment was repeated thrice. All data was shown in a mean ± standard deviation pattern, and Student's t-tests were performed to analyze significance of the data. Statistical significance has been assumed (p < 0.005).

[3] = system: human keratinocyte (HaCaT) cells; test: Cell viability assay (MTT) using HaCaT; type: cell-based
Procedure: as §1

T1 sequence (P00921 whole entry): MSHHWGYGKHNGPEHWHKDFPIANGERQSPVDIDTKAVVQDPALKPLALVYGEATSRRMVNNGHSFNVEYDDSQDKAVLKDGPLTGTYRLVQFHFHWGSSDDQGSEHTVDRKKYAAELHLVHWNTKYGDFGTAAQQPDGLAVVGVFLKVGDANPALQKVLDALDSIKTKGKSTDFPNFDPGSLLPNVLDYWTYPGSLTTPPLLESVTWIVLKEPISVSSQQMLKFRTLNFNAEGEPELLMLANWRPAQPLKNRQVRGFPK

SMILES | Carbonic anhydrase IC50 ± SEM (carbonic anhydrase [1]) | melting point [°C] | IC50 (carbonic anhydrase [1]) [µM] | also measured
COc1ccc(S(=O)(=O)N/N=C/c2cc[nH]c2)cc1 [Compound 3j, (E)-N′-((1H-pyrrol-3-yl)methylene)-4-methoxybenzenesulfonohydrazide] | No inhibition | 176 to 179 |  | 
Cc1ccc(S(=O)(=O)N/N=C/c2ccc[nH]2)cc1 [Compound 3i, (E)-N′-((1H-pyrrol-2-yl)methylene)-4-methylbenzenesulfonohydrazide] | No inhibition | 146 to 148 |  | 
O=S(=O)(N/N=C/c1cccnc1)c1ccccc1 [Compound 3a, (E)-N′-(pyridin-3-ylmethylene)benzenesulfonohydrazide] | No inhibition | 176 to 178 |  | 
O=S(=O)(N/N=C/c1ccc[nH]1)c1ccccc1 [Compound 3h, (E)-N′-((1H-pyrrol-2-yl)methylene)benzenesulfonohydrazide] |  | 156 to 158 | 31.8 ± 1.07 | 
Cc1cc(C)c(S(=O)(=O)N/N=C/c2cccnc2)c(C)c1 [Compound 3b, (E)-2,4,6-trimethyl-N′-(pyridin-3-ylmethylene)benzenesulfonohydrazide] | No inhibition | 173 to 176 |  | 
Cc1ccc(S(=O)(=O)N/N=C/c2cccnc2)cc1 [Compound 3c, (E)-4-methyl-N′-(pyridin-3-ylmethylene)benzenesulfonohydrazide] |  | 168 to 171 | 0.84 ± 0.12 | Vmax (carbonic anhydrase [2]; 3c 7.1 μM): 0.01006 ΔA/min; Vmax (carbonic anhydrase [2]; 3c 14.2 μM): 0.004552 ΔA/min; Vmax (carbonic anhydrase [2]; 3c 28.4 μM): 0.002293 ΔA/min; Inhibition type (carbonic anhydrase [2]; Lineweaver-Burk plots): noncompetitive mode of inhibition; also recorded: noncompetitively; Ki (carbonic anhydrase [2]; secondary plot of Lineweaver-Burk slope versus 3c concentration, read-out: Ki (EI dissociation constant)): 8.6 µM; Cytotoxicity (cell viability) (MCF-7 cells): caused cytotoxicity in a concentration-dependent manner; Cytotoxic effects, HaCaT compared with MCF-7 ([3]; HaCaT versus MCF-7, 250 μM): smaller in case of human keratinocyte (HaCaT) at concentration 250 μM than MCF-7; also recorded: less cytotoxic effects on human keratinocyte cell lines (HaCaT) compared to breast cancer cell lines MCF-7; Cytotoxicity (cell viability) ([3]; HaCaT, 24 h, 0, 125 and 250 μM): caused cytotoxicity in a concentration-dependent manner
Cc1ccc(S(=O)(=O)N/N=C/c2ccccn2)cc1 [Compound 3g, (E)-4-methyl-N′-(pyridin-2-ylmethylene)benzenesulfonohydrazide] |  | 159 to 161 | 59.1 ± 1.68 | 
CC(=O)Nc1ccc(S(=O)(=O)N/N=C/c2cccnc2)cc1 [Compound 3d, (E)-N-(4-((2-(pyridin-3-ylmethylene)hydrazinyl)sulfonyl)phenyl)acetamide] | No inhibition | 181 to 184 |  | 
Cc1cc(C)c(S(=O)(=O)N/N=C/c2ccncc2)c(C)c1 [Compound 3e, (E)-2,4,6-trimethyl-N′-(pyridin-4-ylmethylene)benzenesulfonohydrazide] |  | 160 to 164 | 18.9 ± 0.85 | 
Cc1ccc(S(=O)(=O)N/N=C/c2ccncc2)cc1 [Compound 3f, (E)-4-methyl-N′-(pyridin-4-ylmethylene)benzenesulfonohydrazide] | No inhibition | 148 to 152 |  | 
